Source: US9266830B2, “Pesticidal arylpyrrolidines” (Bayer Intellectual Property GmbH, priority 2007, dated 2016)

How the values were obtained:
Type in all cases: in vivo
[1] = test system: Lucilia cuprina larvae; assay: Lucilia cuprina test (larvae in minced horse meat); conditions: application rate 100 ppm, larvae, after 2 days
Protocol: (§1) Solvent: dimethyl sulfoxide
To produce a suitable preparation of active compound, 10 mg of active compound are dissolved in 0.5 ml solvent, and the concentrate is diluted with water to the desired concentration. Approximately 20-30 (Lucilia cuprina larvae) are transferred into a test tube containing 1 cm^3 of minced horse meat and 0.5 ml aqueous dilution of test compound. After 2 days mortality in % is determined 100% means that all the larvae have been killed; 0% means that none of the larvae have been killed.

[2] = test system: Boophilus microplus; assay: Boophilus microplus test (injection); conditions: application rate 20 μg/animal, adult engorged females, after 7 days
Outline: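 Compound dissolved and diluted in DMSO, then injected into the abdomen of adult engorged female ticks, five per dose. Ticks held in a climate chamber and fertile egg deposition monitored. Read at 7 days as %, 100% = all eggs infertile, 0% = all fertile.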

[3] = test system: Boophilus microplus; assay: Boophilus microplus (dip); conditions: application rate 100 ppm, adult engorged females, after 7 days
Protocol: as §1
To produce a suitable preparation of active compound, 10 mg of active compound are dissolved in 0.5 ml solvent, and the concentrate is diluted with water to the desired concentration. Eight to ten adult engorged female Boophilus microplus ticks are placed in perforated plastic beakers and immersed in aqueous compound solution for one minute. Ticks are transferred to a filter paper in a plastic tray. Egg deposition of fertile eggs is monitored after. After 7 days mortality in % is determined 100% means that all the ticks have been killed; 0% means that none of the ticks have been killed.

[4] = test system: Musca domestica; assay: Musca domestica test (sugar sponge); conditions: application rate 100 ppm, adults, after 2 days
Protocol: as §1
To produce a suitable preparation of active compound, 10 mg of active compound are dissolved in 0.5 ml solvent, and the concentrate is diluted with water to the desired concentration. Prior to the assay, a piece or kitchen sponge is soaked with a mixture of sugar and compound solution and placed into a container. 10 adults (Musca domestica) are placed into the container and closed with a perforated lid. After 2 days mortality in % is determined. 100% means that all the flies have been killed; 0% means that none of the flies have been killed.

[5] = test system: organic phosphorus agent- and carbamate agent-resistant Myzus persicae; assay: Test for organic phosphorus agent- and carbamate agent-resistant Myzus persicae (spray, eggplant); conditions: 100 ppm active ingredient, 7 days
Protocol: If not mentioned otherwise, all sample solutions were prepared as described in Biological Test Example 1 and diluted to the appropriate (predetermined) concentrations.
About 30 to 50 of grown organic phosphorus agent- and carbamate agent-resistant Myzus persicae per seedling were inoculated to leaves at 2-leaf stage of eggplants grown in a pot of 6 cm in diameter, to which, after 1 day from the inoculation, the above prepared water-diluted solution of above active compound of the predetermined concentration was sufficiently sprayed with a spray gun. After the spraying, the pot was left in a greenhouse at room temperature for 7 days, followed by the pest-controlling rate calculated. The test was repeated twice.

[6] = test system: Amblyomma hebraeum; assay: Amblyomma hebraeum test (AMBYHE), nymph immersion; conditions: application rate 100 ppm, nymphs, after 42 days
Protocol: as §1
To produce a suitable preparation of active compound, 10 mg of active compound are dissolved in 0.5 ml solvent, and the concentrate is diluted with water to the desired concentration. Nymphs of the tick Amblyomma hebraeum are placed in perforated plastic beakers and immersed in aqueous compound solution for one minute. Ticks are transferred to a filter paper in a Petri dish and incubated in a climate chamber for 42 days.
After 42 days mortality in % is determined 100% means that all the ticks have been killed; 0% means that none of the ticks have been killed.

NCc1ccc(N2CCC(c3cc(Cl)c(Cl)c(Cl)c3)(C(F)(F)F)C2)cc1Cl (stereo not drawn) [1-336] was tested, and the “activity (mortality in %)” value [1] was 90% and the “activity (100% means that all eggs are infertile)” value [2] was 100%.

O=C(NCc1ccc(N2CCC(c3cc(Cl)cc(Cl)c3)(C(F)(F)F)C2)cc1Cl)NCC(F)(F)F (stereo not drawn) [1-78] was tested, and the “activity (mortality in %)” value [3] was 80% and the “activity (100% means that all eggs are infertile)” value [2] was 100%.

In the case of C=CCNC(=O)NCc1ccc(N2CCC(c3cc(Cl)cc(Cl)c3)(C(F)(F)F)C2)cc1Cl (stereo not drawn) [1-87], the “activity (mortality in %)” value [1] is reported as 80% and the “activity (100% means that all eggs are infertile)” value [2] is reported as 100%.

O=C(NCc1ccc(N2CCC(c3cc(Cl)cc(Cl)c3)(C(F)(F)F)C2)cc1C(F)(F)F)N1CCOCC1 (stereo not drawn) [1-257] was tested, and the “activity (mortality in %)” value [1] was 95% and the “activity (100% means that all eggs are infertile)” value [2] was 100%.

For CCNC(=O)NCc1ccc(N2CCC(c3cc(Cl)cc(Cl)c3)(C(F)(F)F)C2)cc1C(F)(F)F (stereo not drawn) [1-220], the “activity (mortality in %)” value [4] was 90% and the “activity (100% means that all eggs are infertile)” value [2] was 100%.

CC=CC(=O)NCc1ccc(N2CCC(c3cc(Cl)cc(Cl)c3)(C(F)(F)F)C2)cc1C(F)(F)F (stereo not drawn) [1-174] was tested, and the “activity (mortality in %)” value [3] was 80% and the “activity (100% means that all eggs are infertile)” value [2] was 100%.

With C#CCNC(=O)NCc1ccc(N2CCC(c3cc(Cl)cc(Cl)c3)(C(F)(F)F)C2)cc1C(F)(F)F (stereo not drawn) [1-231] the “activity (mortality in %)” value [4] was 95% and the “activity (100% means that all eggs are infertile)” value [2] was 100%.

For CCNC(=O)NCc1ccc(N2CCC(c3cc(C(F)(F)F)cc(C(F)(F)F)c3)(C(F)(F)F)C2)cc1C(F)(F)F (stereo not drawn) [1-302], the “activity (mortality in %)” value [3] was 90% and the “activity (100% means that all eggs are infertile)” value [2] was 100%.

In the case of CCSCC(=O)NCc1ccc(N2CCC(c3cc(Cl)cc(Cl)c3)(C(F)(F)F)C2)cc1C(F)(F)F (stereo not drawn) [1-499], the “activity (mortality in %)” value [4] is reported as 90% and the “activity (100% means that all eggs are infertile)” value [2] is reported as 100%.

For COCCNC(=O)NCc1ccc(N2CCC(c3cc(Cl)cc(Cl)c3)(C(F)(F)F)C2)cc1Cl (stereo not drawn) [1-97], the “activity (mortality in %)” value [1] was 90% and the “activity (100% means that all eggs are infertile)” value [2] was 100%.

In the case of CCC(=O)NCc1ccc(N2CCC(c3cc(Cl)cc(C(F)(F)F)c3)(C(F)(F)F)C2)cc1C(F)(F)F (stereo not drawn) [1-356], the “insecticidal rate (pest-controlling rate)” value (from here on “insecticidal rate”) [5] is reported as 100%.

For O=C(NCc1ccc(N2CCC(c3cc(Cl)cc(Cl)c3)(C(F)(F)F)C2)cc1C(F)(F)F)C(F)F (stereo not drawn) [1-164], the “activity (mortality in %)” value [3] was 95% and the “activity (100% means that all eggs are infertile)” value [2] was 100%.

In the case of O=C(NCc1ccc(N2CCC(c3cc(C(F)(F)F)cc(C(F)(F)F)c3)(C(F)(F)F)C2)cc1C(F)(F)F)NC1CC1 (stereo not drawn) [1-305], the “activity (mortality in %)” value [3] is reported as 80%, the “activity (100% means that all eggs are infertile)” value [2] is reported as 100% and the “activity (mortality in %)” value [6] is reported as 90%.

For CC(C)CC(=O)NCc1ccc(N2CCC(c3cc(Cl)cc(Cl)c3)(C(F)(F)F)C2)cc1Cl (stereo not drawn) [1-7], the “activity (mortality in %)” value [3] was 80% and the “activity (100% means that all eggs are infertile)” value [2] was 100%.

For CCC(=O)NCc1sc(N2CCC(c3cc(Cl)cc(Cl)c3)(C(F)(F)F)C2)nc1C(F)(F)F (stereo not drawn) [5-4], the “activity (mortality in %)” value [4] was 85% and the “activity (100% means that all eggs are infertile)” value [2] was 100%.

For CCNC(=O)NCc1ccc(N2CCC(c3cc(Cl)cc(Cl)c3)(C(F)(F)F)C2)cc1Cl (stereo not drawn) [1-77], the “activity (mortality in %)” value [3] was 80% and the “activity (100% means that all eggs are infertile)” value [2] was 100%.

O=S(=O)(CC(F)(F)F)NCc1ccc(N2CCC(c3cc(Cl)c(Cl)c(Cl)c3)(C(F)(F)F)C2)cc1C(F)(F)F (stereo not drawn) [1-334] was tested, and the “activity (mortality in %)” value [1] was 90% and the “activity (100% means that all eggs are infertile)” value [2] was 100%.

With Cc1nc(N2CCC(c3cc(Cl)cc(Cl)c3)(C(F)(F)F)C2)ncc1C(=O)NCC(F)(F)F (stereo not drawn) [2-69] the “activity (mortality in %)” value [1] was 90% and the “activity (100% means that all eggs are infertile)” value [2] was 100%.

COCCNC(=O)NCc1ccc(N2CCC(c3cc(Cl)cc(Cl)c3)(C(F)(F)F)C2)cc1C(F)(F)F (stereo not drawn) [1-243] was tested, and the “activity (mortality in %)” value [1] was 95% and the “activity (100% means that all eggs are infertile)” value [2] was 100%.

For CSCCNC(=O)NCc1ccc(N2CCC(c3cc(Cl)cc(Cl)c3)(C(F)(F)F)C2)cc1C(F)(F)F (stereo not drawn) [1-244], the “activity (mortality in %)” value [1] was 80% and the “activity (100% means that all eggs are infertile)” value [2] was 100%.

O=C(CC(F)(F)F)NCc1ccc(N2CCC(c3cc(C(F)(F)F)cc(C(F)(F)F)c3)(C(F)(F)F)C2)cc1Br (stereo not drawn) [1-314] was tested, and the “insecticidal rate” value [5] was 100% and the “activity (100% means that all eggs are infertile)” value [2] was 100%.

O=C(NCc1ccccn1)c1sc(N2CCC(c3cc(Cl)cc(Cl)c3)(C(F)(F)F)C2)nc1C(F)(F)F (stereo not drawn) [4-9] was tested, and the “activity (mortality in %)” value [1] was 80%.

For CNC(=O)NCc1ccc(N2CCC(c3cc(C(F)(F)F)cc(C(F)(F)F)c3)(C(F)(F)F)C2)cc1C(F)(F)F (stereo not drawn) [1-301], the “activity (mortality in %)” value [3] was 80% and the “activity (100% means that all eggs are infertile)” value [2] was 100%.

In the case of CCCNC(=O)NCc1ccc(N2CCC(c3cc(Cl)cc(Cl)c3)(C(F)(F)F)C2)cc1Cl (stereo not drawn) [1-79], the “activity (mortality in %)” value [1] is reported as 90% and the “activity (100% means that all eggs are infertile)” value [2] is reported as 100%.

For O=C(NCCC(F)(F)F)NCc1ccc(N2CCC(c3cc(Cl)cc(Cl)c3)(C(F)(F)F)C2)cc1C(F)(F)F (stereo not drawn) [1-238], the “activity (mortality in %)” value [4] was 90%, the “activity (100% means that all eggs are infertile)” value [2] was 100% and the “activity (mortality in %)” value [6] was 85%.

For O=C(CC(F)(F)F)NCc1sc(N2CCC(c3cc(C(F)(F)F)cc(C(F)(F)F)c3)(C(F)(F)F)C2)nc1C(F)(F)F (stereo not drawn) [5-150], the “activity (mortality in %)” value [4] was 95% and the “activity (100% means that all eggs are infertile)” value [2] was 100%.

With O=C(CC(F)(F)F)NCc1ccc(N2CCC(c3cc(C(F)(F)F)cc(C(F)(F)F)c3)(C(F)(F)F)C2)cc1Cl (stereo not drawn) [1-309] the “insecticidal rate” value [5] was 100% and the “activity (100% means that all eggs are infertile)” value [2] was 100%.

With O=C(CC(F)(F)F)NCc1sc(N2CCC(c3cc(Cl)cc(Cl)c3)(C(F)(F)F)C2)nc1C(F)(F)F (stereo not drawn) [5-22] the “activity (mortality in %)” value [4] was 95% and the “activity (100% means that all eggs are infertile)” value [2] was 100%.

For O=C(CC(F)(F)F)NCc1ccc(N2CCC(c3cc(Cl)cc(Cl)c3)(C(F)(F)F)C2)cc1C(F)(F)F (stereo not drawn) [1-162], the “activity (mortality in %)” value [3] was 95% and the “activity (100% means that all eggs are infertile)” value [2] was 100%.

For CSCCC(=O)NCc1ccc(N2CCC(c3cc(Cl)cc(Cl)c3)(C(F)(F)F)C2)cc1Cl (stereo not drawn) [1-467], the “activity (mortality in %)” value [3] was 90%, the “activity (100% means that all eggs are infertile)” value [2] was 100% and the “activity (mortality in %)” value [6] was 90%.

In the case of O=C(NCC(F)(F)F)c1sc(N2CCC(c3cc(Cl)c(Cl)c(Cl)c3)(C(F)(F)F)C2)nc1C(F)(F)F (stereo not drawn) [4-21], the “activity (mortality in %)” value [4] is reported as 90% and the “activity (100% means that all eggs are infertile)” value [2] is reported as 100%.

For CN(Cc1ccc(N2CCC(c3cc(Cl)cc(Cl)c3)(C(F)(F)F)C2)cc1Cl)C(=O)C1CC1 (stereo not drawn) [1-74], the “activity (mortality in %)” value [1] was 90% and the “activity (100% means that all eggs are infertile)” value [2] was 100%.

CC(C)(C)OC(=O)NCc1ccc(N2CCC(c3cc(Cl)c(Cl)c(Cl)c3)(C(F)(F)F)C2)cc1Cl (stereo not drawn) [1-694] was tested, and the “activity (mortality in %)” value [1] was 80% and the “activity (100% means that all eggs are infertile)” value [2] was 100%.

With N#CCC(=O)NCc1ccc(N2CCC(c3cc(Cl)cc(Cl)c3)(C(F)(F)F)C2)cc1Cl (stereo not drawn) [1-39] the “activity (mortality in %)” value [4] was 90% and the “activity (100% means that all eggs are infertile)” value [2] was 100%.

In the case of O=C(Cn1cncn1)NCc1ccc(N2CCC(c3cc(Cl)cc(Cl)c3)(C(F)(F)F)C2)cc1C(F)(F)F (stereo not drawn) [1-558], the “activity (mortality in %)” value [3] is reported as 80% and the “activity (100% means that all eggs are infertile)” value [2] is reported as 100%.

For CCCC(=O)NCc1ccc(N2CCC(c3cc(Cl)c(Cl)c(Cl)c3)(C(F)(F)F)C2)cc1C(F)(F)F (stereo not drawn) [1-328], the “insecticidal rate” value [5] was 100%.
